Five compounds from patent US20260015350A1, “AZAQUINAZOLINE PAN-KRAS INHIBITORS” (Mirati Therapeutics, Inc., priority 2022, published 2026) can be followed below.

Experiment [1] relates to KRas-mediated phosphorylation of ERK in HCT116 cells. The experiment can be described thus: Inhibition of KRas-mediated phosphorylation of ERK (Cisbio HTRF pERK), HCT116 cells. In kind it is cell-based. Particulars: Homo sapiens; for inhibition at 0.1 µM: HCT-116, 3 h, single point, 100 nM compound, 3 hrs; for IC50: HCT-116, HTRF pERK. The gist of the method:
(§1)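 Each compound was tested at 10 concentrations, threefold apart with 10 uM the highest, for 3 hrs on 6,000 seeded cells; final DMSO was 0.8% and Trametinib (0.2 uM) served as Min control. Lysed cells were analysed for pERK by HTRF.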
(In general: TR-FRET usually uses a lanthanide donor and a delayed reading to cut background.)

Experiment [2] concerns KRas-mediated phosphorylation of ERK in H727 cells. The experiment can be described thus: Inhibition of KRas-mediated phosphorylation of ERK (Cisbio HTRF pERK), H727 cells. The experiment is classed as cell-based. To be noted: Homo sapiens; for IC50: NCI-H727, H727 cells, HTRF pERK. An outline of the steps:
(§2)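 Phosphorylated ERK was quantified by HTRF using d2-conjugate and Cryptate antibodies added to lysates for 2 hrs at room temperature.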

The next experiment deals with T1, KRas^G12R (Homo sapiens, UniProt P01116, G12R).
T1 construct: Biotinylated KRas (corresponding to amino acids 1-169, produced at Accelegan Inc.); biotin (biotinylated); purchased Accelegan Inc
The experiment can be described thus: KRas binding assay (TR-FRET tracer displacement), KRas G12R.

A further experiment deals with T2, KRas^G12D (Homo sapiens, UniProt P01116, G12D).
T2 construct: Biotinylated KRas (corresponding to amino acids 1-169, produced at Accelegan Inc.); biotin (biotinylated); purchased Accelegan Inc
The experiment can be described thus: KRas binding assay (TR-FRET tracer displacement), KRas G12D.

The test system of experiment [3] is KRas-mediated phosphorylation of ERK in A549 cells. As to the kind of experiment: Inhibition of KRas-mediated phosphorylation of ERK (Cisbio HTRF pERK), A549 cells. The experiment is classed as cell-based. To be noted: Homo sapiens; for inhibition at 0.1 µM: A549, 3 h, single point, 100 nM compound, 3 hrs; for IC50: HTRF pERK. An outline of the steps:
as §1

In another experiment the target is T3, KRas^G13D (Homo sapiens, UniProt P01116, G13D).
T3 construct: Biotinylated KRas (corresponding to amino acids 1-169, produced at Accelegan Inc.); biotin (biotinylated); purchased Accelegan Inc
The experiment can be described thus: KRas binding assay (TR-FRET tracer displacement), KRas G13D. To be noted: for inhibition at 0.01 µM: single point, 10 nM compound, TR-FRET.

In experiment [4] the test system is KRas-mediated phosphorylation of ERK in H358 cells. The experiment can be described thus: Inhibition of KRas-mediated phosphorylation of ERK (Cisbio HTRF pERK), H358 cells. In kind it is cell-based. Particulars: Homo sapiens; for inhibition at 0.1 µM: NCI-H358, 3 h, single point, 100 nM compound, 3 hrs; for IC50: NCI-H358, HTRF pERK. An outline of the steps:
as §2

For the next experiment, the target named is T4, KRas^G12S (Homo sapiens, UniProt P01116, G12S).
T4 construct: Biotinylated KRas (corresponding to amino acids 1-169, produced at Accelegan Inc.); biotin (biotinylated); purchased Accelegan Inc
As to the kind of experiment: KRas binding assay (TR-FRET tracer displacement), KRas G12S. To be noted: for inhibition at 0.01 µM: single point, 10 nM compound, TR-FRET.

In a further experiment the target is T5, KRas^G12V (Homo sapiens, UniProt P01116, G12V).
T5 construct: Biotinylated KRas (corresponding to amino acids 1-169, produced at Accelegan Inc.); biotin (biotinylated); purchased Accelegan Inc
The experiment can be described thus: KRas binding assay (TR-FRET tracer displacement), KRas G12V.

Another experiment addresses T6, KRas^G12C (Homo sapiens, UniProt P01116, G12C).
T6 construct: Biotinylated KRas (corresponding to amino acids 1-169, produced at Accelegan Inc.); biotin (biotinylated); purchased Accelegan Inc
As to the kind of experiment: KRas binding assay (TR-FRET tracer displacement), KRas G12C. To be noted: for inhibition at 0.01 µM: single point, 10 nM compound, TR-FRET.

A further experiment concerns the target T7, KRas^Q61H (Homo sapiens, UniProt P01116, Q61H).
T7 construct: Biotinylated KRas (corresponding to amino acids 1-169, produced at Accelegan Inc.); biotin (biotinylated); purchased Accelegan Inc
The experiment can be described thus: KRas binding assay (TR-FRET tracer displacement), KRas Q61H. To be noted: for inhibition at 0.01 µM: single point, 10 nM compound, TR-FRET.

The test system of experiment [5] is KRas-mediated phosphorylation of ERK in PSN1 cells. The experiment can be described thus: Inhibition of KRas-mediated phosphorylation of ERK (Cisbio HTRF pERK), PSN1 cells. In kind it is cell-based. Particulars: Homo sapiens. An outline of the steps: (§3)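 Seeding density was 6,000 cells/well; medium RPMI, 10% FBS. Read-out by homogeneous time-resolved fluorescence (pERK) after 4 hours covered at room temperature.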

For a further experiment, the target named is T8, KRas^G12A (Homo sapiens, UniProt P01116, G12A).
T8 construct: Biotinylated KRas (corresponding to amino acids 1-169, produced at Accelegan Inc.); biotin (biotinylated); purchased Accelegan Inc
The experiment can be described thus: KRas binding assay (TR-FRET tracer displacement), KRas G12A. To be noted: for inhibition at 0.01 µM: single point, 10 nM compound, TR-FRET.

Another experiment deals with T9, KRas^WT (Homo sapiens, UniProt P01116).
T9 construct: Biotinylated KRas (corresponding to amino acids 1-169, produced at Accelegan Inc.); biotin (biotinylated); purchased Accelegan Inc
As to the kind of experiment: KRas binding assay (TR-FRET tracer displacement), KRas WT. Particulars: for inhibition at 0.01 µM: single point, 10 nM compound, TR-FRET.

For experiment [6], the system named is KRas-mediated phosphorylation of ERK in H460 cells. The experiment can be described thus: Inhibition of KRas-mediated phosphorylation of ERK (Cisbio HTRF pERK), H460 cells. In kind it is cell-based. Particulars: Homo sapiens; for inhibition at 0.1 µM: NCI-H460, 3 h, single point, 100 nM compound, 3 hrs; for IC50: NCI-H460, HTRF pERK. An outline of the steps: as §2

The subject of experiment [7] is KRas-mediated phosphorylation of ERK in AsPC-1 cells. The experiment can be described thus: Inhibition of KRas-mediated phosphorylation of ERK (Cisbio HTRF pERK), AsPC-1 cells. The experiment is classed as cell-based. Particulars: Homo sapiens; for IC50: ASPC1, AsPC-1 cells, HTRF pERK. An outline of the steps:
as §2

The subject of experiment [8] is KRas-mediated phosphorylation of ERK in MKN1 cells. As to the kind of experiment: Inhibition of KRas-mediated phosphorylation of ERK (Cisbio HTRF pERK), MKN1 cells. The experiment is classed as cell-based. Particulars: Homo sapiens, MKN-1. An outline of the steps:
as §3

T9 sequence (P01116 1-169 isoform P01116-2): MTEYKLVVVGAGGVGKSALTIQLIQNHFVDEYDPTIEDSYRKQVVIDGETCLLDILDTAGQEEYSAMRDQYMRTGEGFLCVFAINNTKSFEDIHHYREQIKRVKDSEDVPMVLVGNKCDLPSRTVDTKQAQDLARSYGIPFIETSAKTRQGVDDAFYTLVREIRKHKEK
T3 sequence (P01116 1-169 isoform P01116-2 G13D): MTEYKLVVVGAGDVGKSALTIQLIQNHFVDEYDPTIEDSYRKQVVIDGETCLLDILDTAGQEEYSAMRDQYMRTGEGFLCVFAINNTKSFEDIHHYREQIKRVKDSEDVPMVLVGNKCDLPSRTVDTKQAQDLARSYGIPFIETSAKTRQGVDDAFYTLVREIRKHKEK
T4 sequence (P01116 1-169 isoform P01116-2 G12S): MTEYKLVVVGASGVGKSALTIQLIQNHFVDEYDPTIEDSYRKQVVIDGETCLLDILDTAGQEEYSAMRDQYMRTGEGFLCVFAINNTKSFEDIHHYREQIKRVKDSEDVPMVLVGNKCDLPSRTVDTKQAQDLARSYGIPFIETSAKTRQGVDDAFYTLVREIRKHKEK
T8 sequence (P01116 1-169 isoform P01116-2 G12A): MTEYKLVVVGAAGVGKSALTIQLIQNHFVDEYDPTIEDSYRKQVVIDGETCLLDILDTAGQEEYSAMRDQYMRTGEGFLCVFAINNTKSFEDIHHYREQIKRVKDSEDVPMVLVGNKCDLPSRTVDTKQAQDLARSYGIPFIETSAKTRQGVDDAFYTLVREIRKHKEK
T2 sequence (P01116 1-169 isoform P01116-2 G12D): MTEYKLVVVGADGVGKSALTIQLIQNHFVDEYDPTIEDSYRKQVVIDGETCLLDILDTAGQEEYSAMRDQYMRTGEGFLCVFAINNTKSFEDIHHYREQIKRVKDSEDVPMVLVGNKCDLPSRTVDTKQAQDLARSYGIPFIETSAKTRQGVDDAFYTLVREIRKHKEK
T6 sequence (P01116 1-169 isoform P01116-2 G12C): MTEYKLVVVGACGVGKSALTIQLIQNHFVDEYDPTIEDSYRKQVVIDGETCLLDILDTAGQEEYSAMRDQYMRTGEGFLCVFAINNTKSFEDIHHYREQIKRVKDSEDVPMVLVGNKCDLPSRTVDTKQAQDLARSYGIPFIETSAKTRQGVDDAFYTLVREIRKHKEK
T7 sequence (P01116 1-169 isoform P01116-2 Q61H): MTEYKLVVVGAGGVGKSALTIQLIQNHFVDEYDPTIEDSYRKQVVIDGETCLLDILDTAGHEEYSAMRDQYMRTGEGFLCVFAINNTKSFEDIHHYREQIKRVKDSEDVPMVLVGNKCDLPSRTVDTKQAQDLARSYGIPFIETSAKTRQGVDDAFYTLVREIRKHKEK
T5 sequence (P01116 1-169 isoform P01116-2 G12V): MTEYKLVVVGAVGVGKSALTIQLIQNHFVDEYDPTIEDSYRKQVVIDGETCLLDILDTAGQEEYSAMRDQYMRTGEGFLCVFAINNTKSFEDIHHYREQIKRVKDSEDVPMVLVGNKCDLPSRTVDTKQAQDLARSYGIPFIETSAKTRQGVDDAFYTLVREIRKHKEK
T1 sequence (P01116 1-169 isoform P01116-2 G12R): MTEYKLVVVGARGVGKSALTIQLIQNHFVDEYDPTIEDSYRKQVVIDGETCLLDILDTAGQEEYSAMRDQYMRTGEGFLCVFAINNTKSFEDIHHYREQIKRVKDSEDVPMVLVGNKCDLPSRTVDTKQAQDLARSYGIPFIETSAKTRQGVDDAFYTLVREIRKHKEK

Consider `CCc1c(F)ccc2cc(O)cc(-c3ncc4c(N5CC6CCC(C5)C6C#N)nc(OC[C@@]56CCCN5C[C@H](F)C6)nc4c3F)c12` (stereo partly drawn) [Example 559, 3-(7-(8-ethyl-7-fluoro-3-hydroxynaphthalen-1-yl)-8-fluoro-2-(((2R,7aS)-2-fluorohexahydro-1H-pyrrolizin-7a-yl)methoxy)pyrido[4,3-d]pyrimidin-4-yl)-3-azabicyclo[3.2.1]octane-8-carbonitrile], for which the inhibition (commonly the share of the control response that was lost under treatment) at 0.1 µM in experiment [1] was 55%; in experiment [3] it was 75%; in experiment [4], 98%; in experiment [6], 89%. The IC50 (as a rule, the midpoint of a concentration-inhibition curve) in [2] is 20 nM; at KRas^G12R, under 2 nM; at KRas^G12D, 15 nM; on KRas^G12V it was under 2 nM; in [5], 9490 nM; in experiment [7], 105 nM. Moreover, the IC50 in experiment [8] worked out at 5 nM. In addition, the inhibition at 0.01 µM is 82% at KRas^G13D; 82% at KRas^G12S; 89% at KRas^G12C; 82% at KRas^Q61H; 70% at KRas^G12A; 73% at KRas^WT.

Turning to `O=S1(=O)CCC2(CCCN(c3nc(OC[C@@]45CCCN4C[C@H](F)C5)nc4c(F)c(-c5cc(O)cc6cccc(Cl)c56)ncc34)C2)N1` (stereo partly drawn) [Example 604, 7-(7-(8-chloro-3-hydroxynaphthalen-1-yl)-8-fluoro-2-(((2R,7aS)-2-fluorohexahydro-1H-pyrrolizin-7a-yl)methoxy)pyrido[4,3-d]pyrimidin-4-yl)-2-thia-1,7-diazaspiro[4.5]decane 2,2-dioxide], the inhibition at 0.1 µM in [1] is 64%; in [2] (NCI-H727, 3 h, single point, 100 nM compound, 3 hrs, H727 cells), 47%; in experiment [3], 27%; in experiment [4] it was 94%; in experiment [6], 69%; in [7] (ASPC1, 3 h, single point, 100 nM compound, 3 hrs, AsPC-1 cells), 53%. The IC50 in [2] was 71 nM; on KRas^G12R it was under 2 nM; at KRas^G12D, under 2 nM; at KRas^G13D (TR-FRET tracer displacement, KRas G13D) it was under 2 nM; at KRas^G12S (TR-FRET tracer displacement, KRas G12S), under 2 nM; on KRas^G12V it was under 2 nM. The half-inhibitory concentration (IC50) at KRas^G12C (TR-FRET tracer displacement, KRas G12C) was under 2 nM; on KRas^Q61H (TR-FRET tracer displacement, KRas Q61H), under 2 nM; in experiment [5] it was 425 nM; on KRas^G12A (TR-FRET tracer displacement, KRas G12A) it was 2 nM; at KRas^WT (TR-FRET tracer displacement, KRas WT) it was under 2 nM; in experiment [7], 81 nM. In experiment [8], this compound gave an IC50 of 2 nM.

In the case of `CCc1c(F)ccc2cc(O)cc(-c3ncc4c(N5CCCC6(CCS(=O)(=O)N6)C5)nc(OC[C@@]56CCCN5C[C@H](F)C6)nc4c3F)c12` (stereo partly drawn) [Example 643, 7-(7-(8-ethyl-7-fluoro-3-hydroxynaphthalen-1-yl)-8-fluoro-2-(((2R,7aS)-2-fluorohexahydro-1H-pyrrolizin-7a-yl)methoxy)pyrido[4,3-d]pyrimidin-4-yl)-2-thia-1,7-diazaspiro[4.5]decane 2,2-dioxide], the figures for the inhibition at 0.1 µM in [1] and in experiment [6] were 87% and 100%, respectively. For the same compound, the IC50 in [1] is 13 nM; in [2] it was 21 nM; on KRas^G12R, under 2 nM; on KRas^G12D, under 2 nM; in [3], 16 nM; in experiment [4], 2 nM. The IC50 on KRas^G12V was under 2 nM; in experiment [5], 625 nM; in experiment [6] it was 5 nM; in experiment [7], 6 nM; in experiment [8] it was 4 nM. Moreover, the inhibition at 0.01 µM at KRas^G13D came to 99%; at KRas^G12S it was 98%; on KRas^G12C, 99%; on KRas^Q61H, 100%; on KRas^G12A it was 88%; on KRas^WT, 98%.

As for `CCc1c(F)ccc2cc(O)cc(-c3ncc4c(N5CCCn6nc(C(=O)N(C)C)c(C)c6C5)nc(OC[C@@]56CCCN5C[C@H](F)C6)nc4c3F)c12` [Example 670, 5-(7-(8-ethyl-7-fluoro-3-hydroxynaphthalen-1-yl)-8-fluoro-2-(((2R,7aS)-2-fluorotetrahydro-1H-pyrrolizin-7a(5H)-yl)methoxy)pyrido[4,3-d]pyrimidin-4-yl)-N,N,3-trimethyl-5,6,7,8-tetrahydro-4H-pyrazolo[1,5-a][1,4]diazepine-2-carboxamide], the IC50 is 53 nM in experiment [1]; 5 nM in experiment [2]; under 2 nM on KRas^G12R; under 2 nM on KRas^G12D; 9 nM in [3]; 1 nM in experiment [4]. Also, the IC50 was under 2 nM on KRas^G12V; 4680 nM in [5]; 17 nM in [6]; 2 nM in experiment [7]; 2 nM in experiment [8]. The inhibition at 0.01 µM at KRas^G13D turned out to be 98%; on KRas^G12S, 100%; on KRas^G12C, 99%; at KRas^Q61H, 97%; at KRas^G12A, 98%; at KRas^WT, 98%.

On to `CCc1c(F)ccc2cc(O)cc(-c3ncc4c(N5CCCCn6nc(C(=O)N(C)C)cc6C5)nc(OC[C@@]56CCCN5C[C@H](F)C6)nc4c3F)c12` [Example 671, 5-(7-(8-ethyl-7-fluoro-3-hydroxynaphthalen-1-yl)-8-fluoro-2-(((2R,7aS)-2-fluorotetrahydro-1H-pyrrolizin-7a(5H)-yl)methoxy)pyrido[4,3-d]pyrimidin-4-yl)-N,N-dimethyl-4,5,6,7,8,9-hexahydropyrazolo[1,5-a][1,4]diazocine-2-carboxamide], for which the inhibition at 0.1 µM in [1] was determined as 35%; in experiment [3], 60%; in [4] it was 98%; in experiment [6] it was 60%. The IC50 in experiment [2] is 6 nM; at KRas^G12R, under 2 nM; on KRas^G12D it was under 2 nM; at KRas^G12V, under 2 nM; in experiment [5] it was 4110 nM; in [7] it was 28 nM. Also, half-maximal inhibition in [8] (IC50) was put at 7 nM. Further, the inhibition at 0.01 µM at KRas^G13D worked out at 93%; on KRas^G12S it was 98%; at KRas^G12C it was 98%; on KRas^Q61H, 94%; on KRas^G12A, 97%; at KRas^WT it was 93%.
